Target: T1, mouse I7 receptor (mI7) (Mus musculus, UniProt Q9QWU6)
T1 sequence (Q9QWU6 1-327): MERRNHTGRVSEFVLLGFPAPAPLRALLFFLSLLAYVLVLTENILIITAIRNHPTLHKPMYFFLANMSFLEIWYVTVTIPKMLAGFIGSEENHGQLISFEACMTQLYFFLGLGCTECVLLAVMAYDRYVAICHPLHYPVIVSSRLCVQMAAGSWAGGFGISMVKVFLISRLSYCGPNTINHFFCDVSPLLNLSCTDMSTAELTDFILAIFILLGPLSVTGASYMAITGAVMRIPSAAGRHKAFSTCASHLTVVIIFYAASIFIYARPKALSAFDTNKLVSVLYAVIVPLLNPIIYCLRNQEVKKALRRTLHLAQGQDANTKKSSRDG

SMILES | EC50
CCCCCCC=O [7al, heptanal] | ~6.3 µM
CCCCCCCC=O [8al, octanal] | ~63.1 µM
